Columns and labels:
[1] = target: T1, KDR(h) (Homo sapiens, UniProt P35968); experiment: Upstate KinaseProfiler enzyme assay, KDR; type: biochemical; details: 500 nM compound; read-out: Percent inhibition at 500 nM KDR(h)
T1 construct: purchased Upstate Biotechnology (Dundee, UK), KinaseProfiler service
How it was run: (§1)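 Substrates are dissolved and diluted to working stocks in de-ionised water. Enzymes go into the assay from 10× working dilutions prepared in pH 7.0 MOPS buffer (20 mM) containing BSA 1 mg/ml, glycerol 5%, Brij-35 0.01%, β-mercaptoethanol 0.1% and EDTA 1 mM.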

[2] = target: T2, BaF3 TELJAK3 cells (Homo sapiens, UniProt P52333); experiment: Cellular screening, BaF3 TEL:JAK3 cells, Alamar Blue; type: cell-based; details: 40 hr, read-out: BafT_J3 IC50_nM
T2 construct: fused on or other part: TEL (ETV6) N-terminal part, coding nucleotides 1-487, serves as the oligomerising partner; It is fused through a Sal I site to the JAK3 kinase domain and expressed from pTRE2 in BaF3 cells bearing pTET-off; P41212 (Transcription factor ETV6)
T2 sequence (P52333 1-1124): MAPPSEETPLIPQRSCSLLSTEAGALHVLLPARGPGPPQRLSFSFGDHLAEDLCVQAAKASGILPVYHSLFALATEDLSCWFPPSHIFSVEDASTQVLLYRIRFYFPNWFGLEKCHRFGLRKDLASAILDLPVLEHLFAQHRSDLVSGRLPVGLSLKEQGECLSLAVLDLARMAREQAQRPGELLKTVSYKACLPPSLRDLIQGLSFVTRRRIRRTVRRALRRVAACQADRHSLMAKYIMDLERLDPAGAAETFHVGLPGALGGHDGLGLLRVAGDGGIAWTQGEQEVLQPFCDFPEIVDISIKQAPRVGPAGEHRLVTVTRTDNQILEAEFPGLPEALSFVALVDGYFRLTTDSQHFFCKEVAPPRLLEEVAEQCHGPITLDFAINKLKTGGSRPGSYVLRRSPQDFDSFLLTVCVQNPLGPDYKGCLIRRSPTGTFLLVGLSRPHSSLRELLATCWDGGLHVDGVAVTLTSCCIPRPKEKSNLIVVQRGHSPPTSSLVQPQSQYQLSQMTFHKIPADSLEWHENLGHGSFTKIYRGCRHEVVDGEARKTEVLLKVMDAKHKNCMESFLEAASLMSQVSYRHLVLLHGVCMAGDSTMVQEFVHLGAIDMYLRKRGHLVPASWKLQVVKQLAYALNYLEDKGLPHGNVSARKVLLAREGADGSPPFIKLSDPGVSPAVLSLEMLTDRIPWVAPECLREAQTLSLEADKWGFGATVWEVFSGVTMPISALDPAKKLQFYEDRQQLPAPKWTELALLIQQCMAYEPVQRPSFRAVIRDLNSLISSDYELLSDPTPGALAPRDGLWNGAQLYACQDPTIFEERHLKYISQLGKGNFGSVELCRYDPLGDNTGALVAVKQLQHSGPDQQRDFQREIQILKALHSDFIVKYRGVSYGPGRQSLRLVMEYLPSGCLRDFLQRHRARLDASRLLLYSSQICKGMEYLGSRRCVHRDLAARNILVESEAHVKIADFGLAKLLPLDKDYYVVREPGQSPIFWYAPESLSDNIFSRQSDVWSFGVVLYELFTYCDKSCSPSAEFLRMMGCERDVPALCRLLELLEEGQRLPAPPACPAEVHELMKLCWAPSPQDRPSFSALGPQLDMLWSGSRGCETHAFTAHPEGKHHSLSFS
How it was run: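 BaF3 cells carrying pTET-off and a TEL–JAK3 kinase-domain fusion, selected for growth-factor independence, were grown in DMEM with 10% Tet-approved FBS without WEHI 3B medium. Cells were exposed to compounds for 40 h at 37 °C, 5% CO2. Viability was read with Alamar Blue (4–6 h) at 544 nm.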

[3] = target: T3, Blk(m) (Mus musculus, UniProt P16277); experiment: Upstate KinaseProfiler enzyme assay, Blk; type: biochemical; details: 500 nM compound; read-out: Percent inhibition at 500 nM Blk(m)
T3 construct: purchased Upstate Biotechnology (Dundee, UK), KinaseProfiler service
T3 sequence (P16277 whole entry): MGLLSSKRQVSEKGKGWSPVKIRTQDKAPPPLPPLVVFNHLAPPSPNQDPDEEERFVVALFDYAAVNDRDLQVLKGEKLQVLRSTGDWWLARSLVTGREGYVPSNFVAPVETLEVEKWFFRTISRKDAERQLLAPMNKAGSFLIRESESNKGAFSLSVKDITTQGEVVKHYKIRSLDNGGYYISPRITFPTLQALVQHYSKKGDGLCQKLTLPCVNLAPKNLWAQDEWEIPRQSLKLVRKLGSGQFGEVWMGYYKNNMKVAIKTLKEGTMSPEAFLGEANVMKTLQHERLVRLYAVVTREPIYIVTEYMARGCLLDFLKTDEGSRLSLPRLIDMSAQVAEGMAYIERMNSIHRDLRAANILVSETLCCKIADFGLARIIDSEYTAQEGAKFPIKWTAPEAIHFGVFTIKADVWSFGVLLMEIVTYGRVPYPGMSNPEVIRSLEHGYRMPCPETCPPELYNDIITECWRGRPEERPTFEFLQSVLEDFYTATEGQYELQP
How it was run: as §1

T1 sequence (P35968 20-1356): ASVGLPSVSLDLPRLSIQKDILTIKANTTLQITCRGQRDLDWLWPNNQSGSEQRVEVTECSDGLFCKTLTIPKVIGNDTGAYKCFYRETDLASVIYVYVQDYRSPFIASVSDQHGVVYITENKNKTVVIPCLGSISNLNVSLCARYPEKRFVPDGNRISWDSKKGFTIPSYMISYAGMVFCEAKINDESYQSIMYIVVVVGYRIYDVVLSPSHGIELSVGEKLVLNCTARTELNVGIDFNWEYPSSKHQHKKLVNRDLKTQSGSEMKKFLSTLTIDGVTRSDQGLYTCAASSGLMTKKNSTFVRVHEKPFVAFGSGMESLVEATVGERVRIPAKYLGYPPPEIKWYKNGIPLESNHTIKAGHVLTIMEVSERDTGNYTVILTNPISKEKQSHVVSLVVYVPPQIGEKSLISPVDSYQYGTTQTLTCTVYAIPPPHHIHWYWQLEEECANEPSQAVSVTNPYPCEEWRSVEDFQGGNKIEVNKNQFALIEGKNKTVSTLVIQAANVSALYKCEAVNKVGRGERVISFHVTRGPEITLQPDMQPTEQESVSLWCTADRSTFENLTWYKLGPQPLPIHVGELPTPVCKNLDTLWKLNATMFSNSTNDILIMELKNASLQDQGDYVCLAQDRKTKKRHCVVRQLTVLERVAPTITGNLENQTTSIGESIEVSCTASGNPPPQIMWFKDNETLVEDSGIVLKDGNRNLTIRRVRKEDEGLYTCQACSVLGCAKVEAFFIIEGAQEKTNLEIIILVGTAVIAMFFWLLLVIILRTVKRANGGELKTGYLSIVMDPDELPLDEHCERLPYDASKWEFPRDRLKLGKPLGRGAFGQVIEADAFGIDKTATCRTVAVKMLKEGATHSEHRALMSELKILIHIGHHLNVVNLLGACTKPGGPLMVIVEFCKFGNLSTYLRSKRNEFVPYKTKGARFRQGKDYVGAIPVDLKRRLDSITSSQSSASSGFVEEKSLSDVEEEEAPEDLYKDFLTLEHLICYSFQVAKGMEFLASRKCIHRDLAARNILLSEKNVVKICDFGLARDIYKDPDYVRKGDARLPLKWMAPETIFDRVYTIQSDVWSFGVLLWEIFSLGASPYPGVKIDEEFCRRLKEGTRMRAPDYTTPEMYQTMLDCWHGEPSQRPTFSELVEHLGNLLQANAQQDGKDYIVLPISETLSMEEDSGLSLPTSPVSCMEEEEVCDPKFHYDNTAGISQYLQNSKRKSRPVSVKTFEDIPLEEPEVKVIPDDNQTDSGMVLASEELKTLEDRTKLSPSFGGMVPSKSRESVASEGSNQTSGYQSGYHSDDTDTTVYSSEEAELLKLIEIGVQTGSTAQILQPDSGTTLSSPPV

Row | SMILES | inhibition at 0.5 µM [1] [%] | GI50 [2] [µM] | inhibition at 0.5 µM [3] [%]
1 | C=CC(=O)Nc1ccc(Sc2ccnc(Nc3cccc(C(=O)OC)c3)n2)cc1 [Compound 356, methyl 3-(4-(4-acrylamidophenylthio)pyrimidin-2-ylao)benzoate] | 100 | < 5 | 100
2 | C=CC(=O)Nc1cccc(Sc2ccnc(Nc3ccc(OC)cc3)n2)c1 [Compound 120, N-(3-(2-(4-methoxyphenylao)pyrimidin-4-ylthio)phenyl)acrylamide] | 100 | < 1 | 100
3 | Cc1cnc(Nc2ccc(N3CCOCC3)cc2)nc1Sc1ccc(N)cc1 [Compound 126, 4-(4-aophenylthio)-5-methyl-N-(4-morpholinophenyl)pyrimidin-2-ae] | 95 | < 5 | 43
4 | CC#CC(=O)Nc1ccc(Sc2nc(Nc3ccc(N4CCOCC4)cc3)ncc2C)cc1 [Compound 125, N-(4-(5-methyl-2-(4-morpholinophenylao)pyrimidin-4-ylthio)phenyl)but-2-ynamide] | 100 | < 5 | 100
5 | C=CC(=O)Nc1ccc(Sc2ccnc(Nc3ccc(N4CCS(=O)(=O)CC4)cc3)n2)cc1 [Compound 99, N-{4-[(2-{[4-(1,1-dioxo-1λ^6,4-thiomorpholin-4-yl)phenyl]ao}pyrimidin-4-yl)sulfanyl]phenyl}prop-2-enamide] | 100 | < 1 | 100
6 | CC(=O)Nc1ccc(Sc2nc(Nc3ccc(N4CCOCC4)cc3)ncc2C)cc1 [Compound 135, N-(4-(5-methyl-2-(4-morpholinophenylao)pyrimidin-4-ylthio)phenyl)acetamide] | 95 | > 20 | 9
7 | C=CC(=O)Nc1ccc(Sc2ccnc(Nc3ccccc3)n2)cc1 [Compound 350, N-(4-(2-(phenylao)pyrimidin-4-ylthio)phenyl)acrylamide] | 100 | < 20 | 100
8 | C=CC(=O)Nc1ccc(Sc2ccnc(Nc3ccc(OC)cc3)n2)cc1 [Compound 74, N-(4-(2-(4-methoxyphenylao)pyrimidin-4-ylthio)phenyl)acrylamide] | 100 | < 1 | 100
9 | C=CC(=O)Nc1ccc(Sc2nc(Nc3ccc(N4CCOCC4)cc3)ncc2C)cc1 [Compound 124, N-(4-(5-methyl-2-(4-morpholinophenylao)pyrimidin-4-ylthio)phenyl)acrylamide] | 100 | < 1 | 100
10 | C=CC(=O)Nc1ccc(Sc2ccnc(Nc3ccc(Cl)cc3)n2)cc1 [Compound 353, N-(4-(2-(4-chlorophenylao)pyrimidin-4-ylthio)phenyl)acrylamide] | 100 | < 5 | 100
11 | C=CC(=O)Nc1cc(C)c(Sc2nc(Nc3ccc(N4CCOCC4)cc3)ncc2C)c(C)c1 [Compound 164, N-(3,5-dimethyl-4-(5-methyl-2-(4-morpholinophenylao)pyrimidin-4-ylthio)phenyl)acrylamide] | 83 | < 1 | 62
12 | C=CC(=O)Nc1ccc(Sc2ccnc(Nc3cccc(S(N)(=O)=O)c3)n2)cc1 [Compound 364, N-(4-(2-(3-sulfamoylphenylao)pyrimidin-4-ylthio)phenyl)acrylamide] | 96 | < 1 | 81
13 | C=CC(=O)Nc1ccc(Sc2ccnc(Nc3ccc(N4CCOCC4)cc3)n2)c(Cl)c1C [Compound 161, N-(3-chloro-2-methyl-4-(2-(4-morpholinophenylao)pyrimidin-4-ylthio)phenyl)acrylamide] | 100 | < 1 | 100
14 | C=CC(=O)Nc1ccc(Sc2ccnc(Nc3ccc(OC)c(O)c3)n2)cc1 [Compound 97] | 100 | < 1 | 100
15 | C=CC(=O)Nc1ccc(Sc2nc(Nc3ccc(N4CCC(C(=O)OCC)CC4)cc3)ncc2C)cc1 [Compound 292, ethyl 1-(4-(4-(4-acrylamidophenylthio)-5-methylpyrimidin-2-ylao)phenyl)piperidine-4-carboxylate] | 96 | < 5 | 10
16 | C=CC(=O)Nc1ccc(Sc2ccnc(Nc3cccc(OC)c3)n2)cc1 [Compound 105, N-(4-(2-(3-methoxyphenylao)pyrimidin-4-ylthio)phenyl)acrylamide] | 100 | < 1 | 100
17 | C=CC(=O)Nc1ccc(Sc2ccnc(Nc3ccc(F)c(C#N)c3)n2)cc1 [Compound 354, N-(4-(2-(3-cyano-4-fluorophenylao)pyrimidin-4-ylthio)phenyl)acrylamide] | 100 | < 20 | 100
18 | C=CC(=O)Nc1ccc(Sc2ccnc(Nc3ccc(C(=O)OC)cc3)n2)cc1 [Compound 357, methyl 4-(4-(4-acrylamidophenylthio)pyrimidin-2-ylao)benzoate] | 95 | < 5 | 48
19 | C=CC(=O)Nc1ccc(Sc2ccnc(Nc3ccc(S(N)(=O)=O)cc3)n2)cc1 [Compound 352, N-(4-(2-(4-sulfamoylphenylao)pyrimidin-4-ylthio)phenyl)acrylamide] | 100 | < 20 | 100
20 | C=CC(=O)Nc1ccc(Sc2ccnc(Nc3ccc(N4CCC(N5CCCC5)CC4)cc3)n2)cc1 [Compound 87, N-(4-(2-(4-(4-(pyrrolidin-1-yl)piperidin-1-yl)phenylao)pyrimidin-4-ylthio)phenyl)acrylamide] | 100 | < 1 | 100
21 | C=CC(=O)Nc1ccc(Sc2nc(Nc3ccc(CNS(C)(=O)=O)cc3)ncc2C)cc1 [Compound 294, N-(4-(5-methyl-2-(4-(methylsulfonamidomethyl)phenylao)pyrimidin-4-ylthio)phenyl)acrylamide] | 93 | < 1 | 37
22 | C=CC(=O)Nc1ccc(Sc2ccnc(Nc3cccc(C#N)c3)n2)cc1 [Compound 118, N-(4-(2-(3-cyanophenylao)pyrimidin-4-ylthio)phenyl)acrylamide] | 100 | < 5 | 100

From patent publication US8846704B2, “Thiopyrimidine-based compounds and uses thereof” (YM Biosciences Austraila Pty Ltd, priority 2007, dated 2014)
